For orientation: IC50 means the concentration needed to halve the response being measured.

Experiment [1] addresses T1, hNaV1.7 (Homo sapiens (Human), UniProt Q15858). Description: Patch voltage clamp electrophysiology, inactivated state block of NaV1.7 in HEK-293 cells. The experiment is classed as cell-based. Particulars: HEK cells with β1 subunit, read-out: hNaV 1.7 IC50. Here is the method: Patch voltage clamp electrophysiology allows for the direct measurement and quantification of block of voltage-gated sodium channels (NaV's), and allows the determination of the time- and voltage-dependence of block which has been interpreted as differential binding to the resting, open, and inactivated states of the sodium channel (Hille, B., Journal of General Physiology (1977), 69: 497-515).
The following patch voltage clamp electrophysiology studies were performed on representative compounds of the invention using human embryonic kidney cells (HEK), permanently transfected with an expression vector containing the full-length cDNA coding for the desired human sodium channel α-subunit, grown in culture media containing 10% FBS, 1% PSG, and 0.5 mg/mL G418 at 37° C. with 5% CO2. […] NaV1.7 and NaV1.5 cDNAs (NM_002977 and AC137587; SCN5A, respectively) were stably expressed in HEK-293 cells. The β1 subunit was coexpressed in both the NaV1.7 and NaV1.5 cell lines.
Sodium currents were measured using the patch clamp technique in the whole-cell configuration using either a PatchXpress automated voltage clamp or manually using an Axopatch 200B (Axon Instruments) or Model 2400 (A-M systems) amplifier. The manual voltage clamp protocol was as follows:
The pipette was filled with a solution comprised of: 5 mM NaCl, 10 mM CsCl, 120 mM CsF, 0.1 mM CaCl2, 2 mM MgCl2, 10 mM HEPES, 10 mM EGTA; and adjusted to pH 7.2 with CsOH. The external solution had the following composition: 140 mM NaCl, 5 mM KCl, 2 mM CaCl2, 1 mM MgCl2, 10 mM HEPES; and adjusted to pH 7.4 with NaOH. In some studies, the external sodium was reduced by equimolar replacement with choline. Osmolarity in the CsF internal and NaCl external solutions was adjusted to 300 mOsm/kg and 310 mOsm/kg with glucose, respectively. All recordings were performed at ambient temperature in a bath chamber with a volume of 150 μL. Control sodium currents were measured in 0.5% DMSO. Controls and representative compounds of the invention were applied to the recording chamber through a 4-pinch or 8-pinch valve bath perfusion system manufactured by ALA Scientific Instruments.
Currents were recorded at 40 kHz sampling frequency, filtered at […], and stored using a Digidata-1322A analogue/digital interface with the pClamp software (Axon Instruments). Series resistance compensation was applied (60-80%). […] All statistics in this study are given as mean±SD.
The membrane potential was maintained at a voltage where inactivation of the channel is complete (which was −60 mV for both NaV1.7 and NaV1.5). […] The percent decrease in sodium current following wash-on of compound was taken as the percent block of sodium channels.

The target of experiment [2] is T1, hNaV1.7. Nature of the experiment: Competitive binding of tritiated compound to membranes from cells expressing hNav1.7 and the β1 subunit. Particulars: 100 pM [3H]compound, 18 h, room temperature; read-out: NaV1.7 395 Membrane Binding IC50. Here is the method:
Tritiated compound binding to membranes isolated from cells that heterologously express hNav1.7 and the β1 subunit
Preparation of membranes containing recombinantly expressed sodium channels: Frozen recombinant cell pellets were thawed on ice and diluted to 4 times the cell pellet weight with ice cold 50 mM Tris HCl, pH 7.4 buffer. The cell suspensions were homogenized on ice using a motorized glass dounce homogeniser. Homogenates were further diluted 8.4 times with ice cold 50 mM Tris HCl, pH 7.4 buffer and then centrifuged at 200×g at 4° C. for 15 min. The supernatants were collected and centrifuged at 10000×g at 4° C. for 50 min. The pellets were then re-suspended in 100 mM NaCl, 20 mM Tris HCl, pH 7.4 buffer containing 1% v/v protease inhibitors (Calbiochem) and re-homogenized on ice. The homogenized membranes were then processed through a syringe equipped with a 26 gauge needle. Protein concentrations were determined by Bradford Assay and the membranes were stored at −80° C.
Radioligand Binding Studies: Saturation experiments. A representative compound of formula (I) was tritiated. Three tritiums were incorporated in place of methyl hydrogens to generate [^3H]compound. Binding of this radioligand was performed in 5 mL borosilicate glass test tubes at room temperature. Binding was initiated by adding membranes to increasing concentrations of [^3H]compound in 100 mM NaCl, 20 mM Tris HCl, pH 7.4 buffer containing 0.01% w/v bovine serum albumin (BSA) for 18 h. Non-specific binding was determined in the presence of 1 μM unlabelled compound. After 18 h, the reactants were filtered through GF/C glass fiber filters presoaked in 0.5% w/v polyethylene imine. Filters were washed with 15 mL ice cold 100 mM NaCl, 20 mM Tris HCl, pH 7.4 buffer containing 0.25% BSA to separate bound from free ligand. [^3H]compound bound to filters was quantified by liquid scintillation counting.
Competitive binding experiments. Binding reactions were performed in 96-well polypropylene plates at room temperature for 18 h. In 360 μL, membranes were incubated with 100 pM [^3H]compound and increasing concentrations of Test Compound. Non-specific binding was defined in the presence of 1 μM unlabelled compound. Reactions were transferred and filtered through 96-well glass fiber/C filter plates presoaked with 0.5% polyethylene imine. The filtered reactions were washed 5 times with 200 μL ice cold buffer containing 0.25% BSA. Bound radioactivity was determined by liquid scintillation counting.
Data Analysis: For saturation experiments, non-specific binding was subtracted from total binding to provide specific binding and these values were recalculated in terms of pmol ligand bound per mg protein. Saturation curves were constructed and dissociation constants were calculated using the single site ligand binding model: Beq=(Bmax*X)/(X+Kd), where Beq is the amount of ligand bound at equilibrium, Bmax is the maximum receptor density, Kd is the dissociation constant for the ligand, and X is the free ligand concentration. For competition studies percent inhibition was determined and IC50 values were calculated using a 4 parameter logistic model (% inhibition=(A+((B−A)/(1+((x/C)^D)))) using XLfit, where A and B are the maximal and minimum inhibition respectively, C is the IC50 concentration and D is the (Hill) slope.

T1 sequence (Q15858 whole entry, looked up): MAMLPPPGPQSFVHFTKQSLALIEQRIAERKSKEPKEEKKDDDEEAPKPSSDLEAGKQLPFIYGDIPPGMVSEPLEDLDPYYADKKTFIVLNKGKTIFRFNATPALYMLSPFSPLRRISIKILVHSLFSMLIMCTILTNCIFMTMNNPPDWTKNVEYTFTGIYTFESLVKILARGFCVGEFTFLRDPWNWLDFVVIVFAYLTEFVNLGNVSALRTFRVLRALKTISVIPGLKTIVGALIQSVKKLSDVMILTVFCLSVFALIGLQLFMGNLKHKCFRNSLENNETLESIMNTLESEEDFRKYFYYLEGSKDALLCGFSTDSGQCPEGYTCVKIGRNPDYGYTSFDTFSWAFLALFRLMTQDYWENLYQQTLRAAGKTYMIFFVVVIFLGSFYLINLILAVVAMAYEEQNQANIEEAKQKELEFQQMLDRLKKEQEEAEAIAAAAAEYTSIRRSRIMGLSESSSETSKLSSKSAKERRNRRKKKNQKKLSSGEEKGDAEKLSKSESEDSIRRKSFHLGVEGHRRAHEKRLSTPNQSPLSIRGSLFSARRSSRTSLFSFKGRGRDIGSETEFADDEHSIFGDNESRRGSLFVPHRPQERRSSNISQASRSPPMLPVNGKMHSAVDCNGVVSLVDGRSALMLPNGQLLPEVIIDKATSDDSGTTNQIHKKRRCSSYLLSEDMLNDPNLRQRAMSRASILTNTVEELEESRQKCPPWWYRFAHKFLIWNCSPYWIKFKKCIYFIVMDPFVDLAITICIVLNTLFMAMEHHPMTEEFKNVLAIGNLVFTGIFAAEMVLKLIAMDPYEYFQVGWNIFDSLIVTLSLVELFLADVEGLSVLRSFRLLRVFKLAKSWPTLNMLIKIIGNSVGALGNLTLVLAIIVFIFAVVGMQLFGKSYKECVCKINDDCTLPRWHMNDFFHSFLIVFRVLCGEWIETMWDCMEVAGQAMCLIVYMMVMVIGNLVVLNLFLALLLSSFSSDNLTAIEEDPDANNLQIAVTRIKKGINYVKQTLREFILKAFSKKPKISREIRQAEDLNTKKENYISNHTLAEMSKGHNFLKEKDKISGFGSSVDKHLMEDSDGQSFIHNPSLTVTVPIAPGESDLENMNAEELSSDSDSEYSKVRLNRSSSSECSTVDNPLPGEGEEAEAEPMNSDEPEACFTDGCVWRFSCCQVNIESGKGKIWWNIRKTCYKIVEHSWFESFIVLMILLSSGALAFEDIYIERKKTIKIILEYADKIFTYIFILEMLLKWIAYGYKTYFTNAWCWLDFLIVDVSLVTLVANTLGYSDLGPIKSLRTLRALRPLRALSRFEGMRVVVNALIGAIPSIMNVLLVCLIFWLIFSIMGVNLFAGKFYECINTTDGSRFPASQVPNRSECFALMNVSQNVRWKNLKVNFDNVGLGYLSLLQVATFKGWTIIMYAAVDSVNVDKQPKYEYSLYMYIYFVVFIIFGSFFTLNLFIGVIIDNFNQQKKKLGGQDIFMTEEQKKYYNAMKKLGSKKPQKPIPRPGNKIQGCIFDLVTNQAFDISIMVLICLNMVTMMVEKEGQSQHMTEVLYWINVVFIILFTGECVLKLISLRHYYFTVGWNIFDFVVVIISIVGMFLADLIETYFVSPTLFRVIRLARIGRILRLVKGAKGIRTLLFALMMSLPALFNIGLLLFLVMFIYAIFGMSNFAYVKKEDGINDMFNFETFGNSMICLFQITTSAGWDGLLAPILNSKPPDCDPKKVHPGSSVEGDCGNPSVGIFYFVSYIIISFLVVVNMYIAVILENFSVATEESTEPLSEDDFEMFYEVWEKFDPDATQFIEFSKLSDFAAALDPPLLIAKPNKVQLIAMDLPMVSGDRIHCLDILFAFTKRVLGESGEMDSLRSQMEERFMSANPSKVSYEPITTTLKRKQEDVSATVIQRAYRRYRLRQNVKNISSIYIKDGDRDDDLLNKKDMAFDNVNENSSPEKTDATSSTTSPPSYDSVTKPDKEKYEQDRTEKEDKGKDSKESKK
T1 sequence (Q07699 whole entry partner, looked up): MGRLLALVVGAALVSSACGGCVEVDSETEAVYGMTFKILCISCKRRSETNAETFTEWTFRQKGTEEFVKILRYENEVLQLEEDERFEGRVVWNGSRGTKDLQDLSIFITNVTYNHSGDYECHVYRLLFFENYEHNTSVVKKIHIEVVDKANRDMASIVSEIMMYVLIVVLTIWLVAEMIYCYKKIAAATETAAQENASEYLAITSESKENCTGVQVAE

In the case of `CN(C)S(=O)(=O)NC(=O)c1cc(Cl)c(COc2cnc(OCC(F)(F)C(F)F)c(Cl)c2)cc1F` [Preparation 76], the IC50 worked out at 34.3 nM on hNaV1.7 [1] and 220 nM on hNaV1.7 [2].
In the same order, the values of `CC(C)COc1ncc(Oc2cc(F)c(C(=O)NS(=O)(=O)N3CCc4ccccc43)cc2Cl)cc1Cl` [Preparation 25, 5-chloro-4-((5-chloro-6-isobutoxypyridin-3-yl)oxy)-2-fluoro-N-(indolin-1-yl-sulfonyl)benzamide] are 190 nM and 388 nM.
In the same order, the values of `CC(C)COc1ncc(Oc2cc(F)c(C(=O)NS(=O)(=O)N3CCCC3)cc2Cl)cc1Cl` [Preparation 14, 5-chloro-4-((5-chloro-6-isobutoxypyridin-3-yl)oxy)-2-fluoro-N-(pyrrolidin-1-ylsulfonyl)benzamide] are 44 nM and 30.1 nM.
In the same order, the values of `CC(C)COc1ncc(Oc2cc(F)c(C(=O)NS(=O)(=O)c3cn(C)cn3)cc2Cl)cc1Cl` [Preparation 24, 5-chloro-4-((5-chloro-6-isobutoxypyridin-3-yl)oxy)-2-fluoro-N-((1-methyl-1H-imidazol-4-yl)sulfonyl)benzamide] are 34 nM and 578 nM.
With `CN(C)S(=O)(=O)NC(=O)c1cc(Cl)c(COc2ccc(Cl)c(Cl)c2)cc1F` [Preparation 5, 5-chloro-4-((3,4-dichlorophenoxy)methyl)-N-(N,N-dimethylsulfamoyl)-2-fluorobenzamide], the figures for the IC50 on hNaV1.7 [1] and on hNaV1.7 [2] were 19 nM and 174 nM, respectively.
In the same order, the values of `CC(C)Oc1ncc(OCc2cc(F)c(C(=O)NS(=O)(=O)N3CCC3)cc2Cl)cc1Cl` [Preparation 82] are 6.1 nM and 43 nM.
In the same order, the values of `CC(C)COc1ncc(Oc2cc(F)c(C(=O)NS(=O)(=O)N3CCCCC3)cc2Cl)cc1Cl` [Preparation 15, 5-chloro-4-((5-chloro-6-isobutoxypyridin-3-yl)oxy)-2-fluoro-N-(piperidin-1-ylsulfonyl)benzamide] are 64 nM and 58.4 nM.
`CC(C)COc1ncc(Oc2cc(F)c(C(=O)NS(=O)(=O)N(C)C(C)C)cc2Cl)cc1Cl` [Preparation 17, 5-chloro-4-((5-chloro-6-isobutoxypyridin-3-yl)oxy)-2-fluoro-N-(N-isopropyl-N-methylsulfamoyl) benzamide]: the figures for the IC50 on hNaV1.7 [1] and at hNaV1.7 [2] were 125 nM and 123 nM, respectively.
On the same counts, the results for `CN(C)S(=O)(=O)NC(=O)c1cc(Cl)c(Oc2cnc(OCC(F)(F)C(F)F)c(Cl)c2)cc1F` [Preparation 30, 5-chloro-4-(5-chloro-6-(2,2,3,3-tetrafluoro-propoxy)pyridin-3-yloxy)-N-(N,N-dimethylsulfamoyl)-2-fluorobenzamide] are 34 nM and 47.8 nM.
In the same order, the values of `NS(=O)(=O)NC(=O)c1cc(Cl)c(Oc2ccc(OC(F)(F)F)c(Cl)c2)cc1F` [Preparation 10, 5-chloro-4-(3-chloro-4-(trifluoromethoxy)phenoxy)-2-fluoro-N-sulfamoyl-benzamide] are 226 nM and 2000 nM.
In the same order, the values of `CN(C)S(=O)(=O)NC(=O)c1cc(Cl)c(OCc2ccc(Cl)c(Cl)c2)cc1F` [Preparation 23, 5-chloro-4-((3,4-dichlorobenzyl)oxy)-N-(N,N-dimethyl-sulfamoyl)-2-fluoro-benzamide] are 271 nM and 1250 nM.
With `CC(C)COc1ncc(Oc2cc(F)c(C(=O)NS(=O)(=O)Nc3ccc(C#N)cc3)cc2Cl)cc1Cl` [Preparation 21, 5-chloro-4-((5-chloro-6-isobutoxypyridin-3-yl)oxy)-N-(N-(4-cyanophenyl)sulfamoyl)-2-fluoro-benzamide], the IC50 at hNaV1.7 [1] came to 828 nM; at hNaV1.7 [2] it was 2940 nM.
For `CC(C)COc1ncc(Oc2cc(F)c(C(=O)NS(=O)(=O)N3CCCCCC3)cc2Cl)cc1Cl` [Preparation 16, N-(azepan-1-ylsulfonyl)-5-chloro-4-((5-chloro-6-isobutoxypyridin-3-yl)oxy)-2-fluorobenzamide], the IC50 on hNaV1.7 [1] worked out at 73 nM; on hNaV1.7 [2], 542 nM.
On to `CNS(=O)(=O)NC(=O)c1cc(Cl)c(Oc2ccc(Cl)c(C(F)(F)F)c2)cc1F` [Preparation 8, 5-chloro-4-(4-chloro-3-(trifluoromethyl)phenoxy)-2-fluoro-N-(N-methyl-sulfamoyl)benzamide], for which the IC50 was determined as 22 nM at hNaV1.7 [1] and 109 nM at hNaV1.7 [2].
In the same order, the values of `CC(C)COc1ncc(Oc2cc(F)c(C(=O)NS(=O)(=O)c3c[nH]cn3)cc2Cl)cc1Cl` [Preparation 26, N-((1H-imidazol-4-yl)sulfonyl)-5-chloro-4-((5-chloro-6-isobutoxypyridin-3-yl)oxy)-2-fluorobenzamide] are 9 nM and 77.3 nM.
In the same order, the values of `CC(C)COc1ncc(Oc2cc(F)c(C(=O)NS(N)(=O)=O)cc2Cl)cc1Cl` [Preparation 4, 5-chloro-4-((5-chloro-6-isobutoxypyridin-3-yl)oxy)-2-fluoro-N-sulfamoylbenzamide] are 9 nM and 70.8 nM.
On the same counts, the results for `CC(C)COc1ncc(Oc2cc(F)c(C(=O)NS(=O)(=O)c3cccnc3)cc2Cl)cc1Cl` [Preparation 28, 5-chloro-4-((5-chloro-6-isobutoxypyridin-3-yl)oxy)-2-fluoro-N-(pyridin-3-yl-sulfonyl)benzamide] are 57 nM and 703 nM.
With `CNS(=O)(=O)NC(=O)c1cc(Cl)c(COc2ccc(Cl)c(Cl)c2)cc1F` [Preparation 80], the results for the IC50 at hNaV1.7 [1] and at hNaV1.7 [2] were 11.6 nM and 28 nM, respectively.
In the same order, the values of `C=Cc1cc(C(=O)NS(=O)(=O)N2CCC2)c(F)cc1Oc1cnc(OCC(F)(F)F)c(Cl)c1` [Preparation 92] are 4.3 nM and 11 nM.
As to `CN(C)S(=O)(=O)NC(=O)c1cc(Cl)c(Oc2ccc(OC(F)(F)F)c(Cl)c2)cc1F` [Preparation 12, 5-chloro-4-(3-chloro-4-(trifluoromethoxy)phenoxy)-N-(N,N-dimethylsulfamoyl)-2-fluorobenzamide], the IC50 at hNaV1.7 [1] is 41 nM; at hNaV1.7 [2], 218 nM.
